Assay results from the supplement of paper PMC11061612.

How the values were obtained:
Assay in all cases: Bliss excess, mean over the matrix (fraction); higher = more synergy
[1] = system: 8505C (Thyroid Gland Carcinoma)
Procedure, shortened: (§1)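 Cell lines in DMEM/F12 or RPMI with 10% FBS were plated in 1536-well plates, held 24 hours at 37°C, 5% CO2, then given two-drug dose matrices for 72 hours (DMSO typically 0.2%). Viability was read by CellTiter-Glo 2.0 luminescence and scaled as inhibition from 0 (vehicle wells) to 1 (blank wells). Combination Emax is the second-highest inhibition in the matrix; Bliss excess is observed combination effect minus expected EA + EB − EA·EB, EA and EB being single-agent effects.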

[2] = system: COR-L279 (Small Cell Lung Carcinoma)
Procedure, shortened: as §1

[3] = system: CW-2 (Colorectal Carcinoma)
Procedure, shortened: as §1

[4] = system: DMS-114 (Small Cell Lung Carcinoma)
Procedure, shortened: as §1

[5] = system: ESO51 (Esophageal Adenocarcinoma)
Procedure, shortened: as §1

[6] = system: KU812 (Chronic Myelogenous Leukemia)
Procedure, shortened: as §1

NCI-H2731 (Mesothelioma) = system: NCI-H2731 (Mesothelioma)
Procedure, shortened: as §1

[7] = system: NCI-H3122 (Lung Adenocarcinoma)
Procedure, shortened: as §1

[8] = system: NCI-H520 (Squamous Cell Lung Carcinoma)
Procedure, shortened: as §1

[9] = system: NCI-H661 (Non-Small Cell Lung Carcinoma)
Procedure, shortened: as §1

[10] = system: SK-GT-4 (Esophageal Adenocarcinoma)
Procedure, shortened: as §1

[11] = system: SNU-398 (Hepatocellular Carcinoma)
Procedure, shortened: as §1

[12] = system: SU-DHL-5 (B-Cell Non-Hodgkin's Lymphoma)
Procedure, shortened: as §1

[13] = system: T-T (Esophageal Squamous Cell Carcinoma)
Procedure, shortened: as §1

[14] = system: VMRC-RCZ (Kidney Carcinoma)
Procedure, shortened: as §1

[15] = system: KMS-12-BM (Plasma Cell Myeloma)
Procedure, shortened: as §1

RD (Rhabdomyosarcoma) = system: RD (Rhabdomyosarcoma)
Procedure, shortened: as §1

[16] = system: RPMI-8226 (Plasma Cell Myeloma)
Procedure, shortened: as §1

[17] = system: SK-GT-2 (Gastric Carcinoma)
Procedure, shortened: as §1

[18] = system: HCC1419 (Breast Carcinoma)
Procedure, shortened: as §1

Row | SMILES | Bliss excess [1] | Bliss excess [2] | Bliss excess [3] | Bliss excess [4] | Bliss excess [5] | Bliss excess [6] | Bliss excess (NCI-H2731 (Mesothelioma)) | Bliss excess [7] | Bliss excess [8] | Bliss excess [9] | Bliss excess [10] | Bliss excess [11] | Bliss excess [12] | Bliss excess [13] | Bliss excess [14] | Bliss excess [15] | Bliss excess (RD (Rhabdomyosarcoma)) | Bliss excess [16] | Bliss excess [17] | Bliss excess [18]
1 | CCc1c2c(nc3ccc(O)cc13)-c1cc3c(c(=O)n1C2)COC(=O)[C@]3(O)CC [SN-38] + O=C(c1cc(Cc2n[nH]c(=O)c3ccccc23)ccc1F)N1CCN(C(=O)C2CC2)CC1 [Olaparib] (first compound max 0.3 µM, 7x7, partner max 10 µM) | 0.0498 | 0.0742 | 0.0293 | 0.0741 | -0.0199 | 0.0053 | 0.0324 | 0.0685 | 0.0654 | 0.0696 | 0.0257 | 0.0008 | 0.065 | -0.0243 | 0.0072 |  |  |  |  | 
2 | NC1(C(=O)N[C@@H](CCO)c2ccc(Cl)cc2)CCN(c2ncnc3[nH]ccc23)CC1 [Capivasertib] + COc1nnc2ccc(N3CCC(c4ccc(OCCN5CCN(C)C(=O)[C@H]5C)cc4)CC3)nn12 [AZD5153] (first compound max 10 µM, 7x7, partner max 1 µM) | 0.0008 | 0.0735 | 0.0459 | 0.0259 | 0.0603 | -0.05 | -0.0012 | -0.0131 | 0.0497 | 0.0687 | -0.0204 | 0.0733 | -0.0179 | -0.0365 | 0.0171 | 0.0409 | 0.0116 | 0.0244 | 0.0448 | 
3 | COc1nnc2ccc(N3CCC(c4ccc(OCCN5CCN(C)C(=O)[C@H]5C)cc4)CC3)nn12 [AZD5153] + CN(CC[C@H](CSC1=CC=CC=C1)NC2=C(C=C(C=C2)S(=O)(=O)NC(=O)C3=CC=C(C=C3)N4CCC(CC4)[C@H](C5=CC=CC=C5C6=CC=C(C=C6)Cl)O)S(=O)(=O)C(F)(F)F)CCO [AZD4320] (first compound max 1 µM, 7x7, partner max 1 µM) | 0.0185 |  |  |  | -0.0079 |  |  |  |  | 0.0102 |  | -0.0093 | -0.0155 |  |  | 0.0143 | 0.0526 | -0.0027 | 0.0412 | -0.0403
4 | CS(=O)(=O)CCNCc1ccc(-c2ccc3ncnc(Nc4ccc(OCc5cccc(F)c5)c(Cl)c4)c3c2)o1 [Lapatinib] + Cn1cnc2c(F)c(Nc3ccc(Br)cc3Cl)c(C(=O)NOCCO)cc21 [Selumetinib] (first compound max 10 µM, 7x7, partner max 10 µM) |  | -0.0224 | 0.003 | -0.044 |  | 0.0082 | -0.012 | 0.0083 | -0.034 |  | 0.0369 |  |  | 0.0514 | -0.0149 |  |  |  |  | 
5 | NC1(C(=O)N[C@@H](CCO)c2ccc(Cl)cc2)CCN(c2ncnc3[nH]ccc23)CC1 [Capivasertib] + CC(=O)c1c(C)c2cnc(Nc3ccc(N4CCNCC4)cn3)nc2n(C2CCCC2)c1=O [Palbociclib] (first compound max 10 µM, 7x7, partner max 10 µM) | -0.0475 | -0.0443 | 0.0329 | -0.0203 | -0.0475 | 0.0662 | -0.0008 | 0.0266 | 0.0018 | 0.0204 | 0.0029 | -0.057 | 0.0287 | -0.0221 | 0.0321 | 0.0977 | -0.0333 | 0.01 | 0.0012 | 
6 | C=CCn1c(=O)c2cnc(Nc3ccc(N4CCN(C)CC4)cc3)nc2n1-c1cccc(C(C)(C)O)n1 [AZD1775] + O=C(c1cc(Cc2n[nH]c(=O)c3ccccc23)ccc1F)N1CCN(C(=O)C2CC2)CC1 [Olaparib] (first compound max 1 µM, partner max 10 µM) |  | -0.0572 | 0.0127 | -0.021 | -0.0917 | -0.039 | -0.0438 | -0.0111 | -0.0057 | -0.0179 | -0.0709 | -0.0396 | 0.0215 | -0.002 | -0.0443 | -0.0239 | -0.0532 | -0.0366 | -0.0139 | -0.047
7 | CC(=O)c1c(C)c2cnc(Nc3ccc(N4CCNCC4)cn3)nc2n(C2CCCC2)c1=O [Palbociclib] + CC1(C)CCC(CN2CCN(c3ccc(C(=O)NS(=O)(=O)c4ccc(NCC5CCOCC5)c([N+](=O)[O-])c4)c(Oc4cnc5[nH]ccc5c4)c3)CC2)=C(c2ccc(Cl)cc2)C1 [Venetoclax] (first compound max 10 µM, 7x7, partner max 1 µM) | -0.0584 | -0.002 | 0.0067 | -0.0282 | -0.0078 | -0.0401 | -0.0002 | -0.0335 | -0.0209 | -0.0593 | -0.0437 | 0.0232 | -0.0201 | -0.027 | -0.0479 | 0.0637 | -0.0486 | 0.0461 | -0.0342 | 
8 | CS(=O)(=O)CCNCc1ccc(-c2ccc3ncnc(Nc4ccc(OCc5cccc(F)c5)c(Cl)c4)c3c2)o1 [Lapatinib] + C[C@@H](Oc1cc(-c2cnn(C3CCNCC3)c2)cnc1N)c1c(Cl)ccc(F)c1Cl [Crizotinib] (first compound max 10 µM, 7x7, partner max 10 µM) | -0.0441 | -0.06 | -0.0146 | -0.017 | 0.0885 | -0.0598 | -0.0456 | 0.0001 | -0.0975 | -0.0252 | -0.0211 | -0.0451 | -0.0186 | -0.0172 | -0.0291 | 0.0256 | -0.0253 | -0.0127 | -0.0154 | 
9 | CC(=O)c1c(C)c2cnc(Nc3ccc(N4CCNCC4)cn3)nc2n(C2CCCC2)c1=O [Palbociclib] + Cc1c2c(nn1C)CSCc1cc(n(C)n1)CSc1cc(c3ccccc3c1)OCCCc1c(C(=O)O)n(C)c3c-2c(Cl)ccc13 [AZD5991] (first compound max 10 µM, 7x7, partner max 1 µM) | -0.175 | 0.006 | -0.0111 | -0.0083 | -0.0192 | -0.0351 | -0.0484 | -0.0217 | 0.0024 | -0.0443 | -0.0645 | 0.0128 | -0.0071 | 0.0028 | -0.026 | 0.035 | 0.0077 | -0.0191 | -0.021 | 
10 | Cc1nc(Nc2ncc(C(=O)Nc3c(C)cccc3Cl)s2)cc(N2CCN(CCO)CC2)n1 [Dasatinib] + CC(=O)Nc1cccc(-n2c(=O)n(C3CC3)c(=O)c3c(Nc4ccc(I)cc4F)n(C)c(=O)c(C)c32)c1 [Trametinib] (first compound max 2 µM, 7x7, partner max 1 µM) | 0.0809 | -0.0073 | 0.0129 | -0.0036 | -0.0066 | -0.0046 | 0.0298 | -0.0651 | -0.0488 | -0.0528 | -0.0415 | -0.0842 | 0.0159 | 0.0381 | -0.0257 | -0.0046 | 0.188 | 0.0121 | -0.0013 | 
11 | NC1(C(=O)N[C@@H](CCO)c2ccc(Cl)cc2)CCN(c2ncnc3[nH]ccc23)CC1 [Capivasertib] + CC(C)n1c(=O)n(C)c2cnc3cc(F)c(-c4ccc(OCCCN5CCCCC5)nc4)cc3c21 [AZD1390] (first compound max 10 µM, 7x7, partner max 0.3 µM) | -0.0376 | -0.0055 | -0.0469 | -0.0465 | -0.0416 | -0.0037 | -0.0169 | -0.0304 | -0.0559 | -0.0692 | -0.0586 | -0.0579 | -0.0114 | 0.0071 | -0.035 | -0.0274 | -0.0146 | -0.0096 | -0.0342 | 
12 | NC1(C(=O)N[C@@H](CCO)c2ccc(Cl)cc2)CCN(c2ncnc3[nH]ccc23)CC1 [Capivasertib] + C[C@@H]1COCCN1C2=NC(=NC(=C2)C3(CC3)[S@](=N)(=O)C)C4=C5C=CNC5=NC=C4 [AZD6738] (first compound max 10 µM, 7x7, partner max 10 µM) | -0.0138 | 0.0329 | -0.0298 | -0.0067 | -0.0208 | 0.0357 | -0.0267 | -0.0758 | -0.0357 | -0.0645 | -0.0871 | -0.0748 | 0.0087 | -0.0452 | -0.0106 | 0.0398 | -0.0453 | -0.0344 | -0.001 | 
13 | NC1(C(=O)N[C@@H](CCO)c2ccc(Cl)cc2)CCN(c2ncnc3[nH]ccc23)CC1 [Capivasertib] + Cn1cnc2c(F)c(Nc3ccc(Br)cc3Cl)c(C(=O)NOCCO)cc21 [Selumetinib] (first compound max 10 µM, 7x7, partner max 10 µM) | 0.0302 | 0.0214 | -0.0035 | 0.0203 | 0.0417 | -0.0282 | -0.0115 | 0.092 | -0.015 | -0.0074 | -0.0373 | 0.0287 | 0.0547 | 0.095 | -0.0066 | 0.0441 | 0.0942 | 0.0411 | 0.063 | 
14 | NC1(C(=O)N[C@@H](CCO)c2ccc(Cl)cc2)CCN(c2ncnc3[nH]ccc23)CC1 [Capivasertib] + CCN(CCO)CCCOc1ccc2c(Nc3cc(CC(=O)Nc4cccc(F)c4)[nH]n3)ncnc2c1 [AZD2811] (first compound max 10 µM, 7x7, partner max 1 µM) | 0.0134 | -0.054 | -0.0348 | 0.0039 | -0.0363 | 0.0173 | 0.0438 | -0.0428 | -0.004 | -0.0058 | -0.016 | 0.0216 | -0.0225 | 0.013 | -0.046 | 0.0502 | -0.0211 | -0.0101 | -0.0239 | 
15 | CC(=O)c1c(C)c2cnc(Nc3ccc(N4CCNCC4)cn3)nc2n(C2CCCC2)c1=O [Palbociclib] + Cn1cnc2c(F)c(Nc3ccc(Br)cc3Cl)c(C(=O)NOCCO)cc21 [Selumetinib] (first compound max 10 µM, 7x7, partner max 10 µM) | -0.0377 | -0.025 | 0.0099 | -0.0065 | 0.0041 | -0.0536 | -0.0341 | -0.0306 | -0.054 | -0.0533 | -0.0126 | -0.0388 | 0.101 | 0.0252 | -0.0367 | 0.0219 | 0.0455 | 0.142 | -0.0175 | 
